Reference: publication PMC12490239, “Combining BET inhibition with SMAC mimetics restricts tumor growth and triggers immune surveillance in preclinical cancer models” (Cell Reports Medicine, 2025)

What was measured:
Assay in all cases: cells
Set-up in all cases: CellTiter-Glo 2.0 luminescence proliferation/viability assay, single agents, human tumour cell line panel
HGC-27 = conditions: Homo sapiens, HGC-27, 96 h; single agent; read-out: IC50 SMACm
How it was run: (§1)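 Human tumour cell lines were seeded into assay plates and held at 37°C with 5% CO2 for twenty-four hours, then exposed in triplicate to rising concentrations of the SMAC mimetic, from 4.5 nM to 10 μM, with DMSO as control. After 96 h, viability was read as CellTiter-Glo2.0 luminescence to derive single-agent IC50 values.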

KM12 = conditions: Homo sapiens, KM12, 96 h; single agent; read-out: IC50 SMACm
How it was run: as §1

NUGC-3 = conditions: Homo sapiens, NUGC-3, 96 h; single agent; read-out: IC50 SMACm
How it was run: as §1

T84 = conditions: Homo sapiens, T84, 96 h; single agent; read-out: IC50 SMACm
How it was run: as §1

**Q.** With `CN[C@@H](C)C(=O)Nc1ccc(-c2c(-c3cccnc3OC)nc3cc(C)ccn23)c(C#Cc2ccc3c(C)nccc3c2)n1` [SMACm, BI 891065] as the molecule, how does the IC50 (HGC-27) read?
**A.** 2890 nM

**Q.** And the IC50 (KM12)?
**A.** 7.46 µM

**Q.** And the IC50 (NUGC-3)?
**A.** 4.59 µM

**Q.** What about the IC50 (T84) of the same molecule?
**A.** 4.44 µM
